Test results from US20230406843A1, “Progranulin Modulators and Methods of Using the Same” (ARKUDA THERAPEUTICS, priority 2020, published 2023).

system: progranulin; assay: Progranulin induction cellular assay (ELISA of secreted mouse PGRN); type: cell-based; conditions: Mus musculus, BV-2, read-out: EC50 μM
Procedure: Cellular Assays: Progranulin induction assay. To measure the efficacy of compounds, a progranulin induction cellular assay in mouse primary microglia (pMG), primary cortical neurons, and BV-2 cell lines is used. BV-2 cells are split the day before plating into a 96 well plate format at approximately 80%. Cells should be plated the day before and allowed for 1 hour attachment period and for 16 hour incubation. Levels of progranulin secreted into the cell culture medium or retained in the cell lysate can be quantified using an ELISA-based readout and measurement of secreted mouse PGRN in the medium was assessed by the methodology published by Ghidoni et al. 2012. Standard ELISA kits to measure PGRN are available from vendors such as Adipogen, R&D, and Biovendor.
Table B below presents the results of a progranulin induction assay as described above.

SMILES	EC50
CC(=O)N[C@@H]1CO[C@@H](C(=O)N2CCc3ccccc3[C@@H]2c2ccc(F)cc2)C[C@@H]1N [Compound 5427, N-((3S,4S,6R)-4-amino-6-((S)-1-(4-fluorophenyl)-1,2,3,4-tetrahydroisoquinoline-2-carbonyl)tetrahydro-2H-pyran-3-yl)acetamide]	0.096 µM

same assay, conditions: progranulin induction assay; mouse pMG, primary cortical neurons and BV-2 cell lines named, cell type not given; ELISA-based readout; read-out: EC50

SMILES	EC50
CCO[C@@H]1CO[C@@H](C(=O)N2CCc3ccccc3[C@@H]2c2ccc(F)cc2)C[C@@H]1N [Compound 5063, ((2R,4S,5S)-4-amino-5-ethoxytetrahydro-2H-pyran-2-yl)((S)-1-(4-fluorophenyl)-3,4-dihydroisoquinolin-2(1H)-yl)methanone]	0.035 µM
C#CCO[C@H]1COC(C(=O)N2CCc3ccccc3[C@@H]2c2ccc(F)cc2)C[C@@H]1NCCCOC (stereo partly drawn) [Compound 5546]	0.03 µM
CCC(=O)N(C)[C@H]1CO[C@@H](C(=O)N2CCc3ccccc3[C@@H]2c2ccc(F)cc2)C[C@@H]1N [Compound 5517, N-((3R,4S,6R)-4-amino-6-((S)-1-(4-fluorophenyl)-1,2,3,4-tetrahydroisoquinoline-2-carbonyl)tetrahydro-2H-pyran-3-yl)-N-methylpropionamide]	0.012 µM
N[C@@H]1CO[C@@H](C(=O)N2CCc3ccccc3[C@@H]2c2ccc(F)cc2F)C[C@@H]1O [Compound 5258]	0.062 µM
N[C@@H]1CO[C@H](C(=O)N2CCc3ccccc3[C@@H]2c2ccc(F)cc2)C[C@H]1O [Compound 5072, ((2S,4R,5R)-5-amino-4-hydroxytetrahydro-2H-pyran-2-yl)((S)-1-(4-fluorophenyl)-3,4-dihydroisoquinolin-2(1H)-yl)methanone]	0.081 µM
C[C@]1(C(=O)N2CCc3ccccc3[C@@H]2c2ccc(F)cc2)C[C@@H](N)CCO1 (single isomer, unassigned) [Compound 5235]	0.372 µM
CCN[C@H]1CO[C@@H](C(=O)N2CCc3ccccc3[C@@H]2c2ccc(F)cc2)OC1 [Compound 5050, (cis-5-(ethylamino)-1,3-dioxan-2-yl)((S)-1-(4-fluorophenyl)-3,4-dihydroisoquinolin-2(1H)-yl)methanone]	0.35 µM
NC1CCC(C(=O)N2CCc3ccccc3[C@@H]2c2ccc(F)cc2F)OC1 (stereo in doubt) [Compound 5018, ((2R,5S)-5-aminotetrahydro-2H-pyran-2-yl)((R)-1-(2,4-difluorophenyl)-3,4-dihydroisoquinolin-2(1H)-yl)methanone]	> 10 µM
CS(=O)(=O)[C@H]1CO[C@@H](C(=O)N2CCc3ccccc3[C@@H]2c2ccc(F)cc2)C[C@@H]1N [Compound 5523, ((2R,4S,5R)-4-amino-5-(methylsulfonyl)tetrahydro-2H-pyran-2-yl)((S)-1-(4-fluorophenyl)-3,4-dihydroisoquinolin-2(1H)-yl)methanone]	0.016 µM
NC[C@]1(O)COC(C(=O)N2CCc3ccccc3[C@@H]2c2ccc(F)cc2)C1 (single isomer, unassigned) [Compound 5005]	0.216 µM
N[C@@H]1C[C@H](C(=O)N2CCc3ccccc3[C@@H]2c2ccc(F)cc2)OC[C@H]1F [Compound 5251, ((2R,4R,5S)-4-amino-5-fluorotetrahydro-2H-pyran-2-yl)((S)-1-(4-fluorophenyl)-3,4-dihydroisoquinolin-2(1H)-yl)methanone]	0.188 µM
CC(C)O[C@H]1CO[C@@H](C(=O)N2CCc3ccccc3[C@@H]2c2ccc(F)cc2)C[C@@H]1N [Compound 5267, ((2R,4S,5R)-4-amino-5-isopropoxytetrahydro-2H-pyran-2-yl)((S)-1-(4-fluorophenyl)-3,4-dihydroisoquinolin-2(1H)-yl)methanone]	0.0001 µM
CCO[C@H]1CO[C@@H](C(=O)N2CCc3ccccc3[C@@H]2c2ccc(F)cc2)C[C@@H]1N [Compound 5078, ((2R,4S,5R)-4-amino-5-ethoxytetrahydro-2H-pyran-2-yl)((S)-1-(4-fluorophenyl)-3,4-dihydroisoquinolin-2(1H)-yl)methanone]	0.001 µM
C[C@@]1(C(=O)N2CCc3ccccc3[C@@H]2c2ccc(F)cc2)OCCNC[C@H]1O [Compound 5505]	0.41 µM
N[C@H]1C[C@H](C(=O)N2CCc3ccccc3[C@@H]2c2ccc(F)cc2)OC[C@@H]1Oc1ccccc1 [Compound 5527, ((2R,4S,5R)-4-amino-5-phenoxytetrahydro-2H-pyran-2-yl)((S)-1-(4-fluorophenyl)-3,4-dihydroisoquinolin-2(1H)-yl)methanone]	0.274 µM
N[C@]12CC[C@](C(=O)N3CCc4ccccc4[C@@H]3c3ccc(F)cc3)(C1)OC2 (single isomer, unassigned) [Compound 5021]	0.148 µM
CCS[C@H]1CO[C@@H](C(=O)N2CCc3ccccc3[C@@H]2c2ccc(F)cc2)C[C@@H]1N [Compound 5521, ((2R,4S,5R)-4-amino-5-(ethylthio)tetrahydro-2H-pyran-2-yl)((S)-1-(4-fluorophenyl)-3,4-dihydroisoquinolin-2(1H)-yl)methanone]	0.008 µM
CO[C@H]1CO[C@@H](C(=O)N2CCc3ccccc3[C@@H]2c2ccc(F)cc2)C[C@@H]1N [Compound 5077, ((2R,4S,5R)-4-amino-5-methoxytetrahydro-2H-pyran-2-yl)((S)-1-(4-fluorophenyl)-3,4-dihydroisoquinolin-2(1H)-yl)methanone]	0.003 µM

SMILES	EC50
N[C@H]1CC[C@@H](C(=O)N2CCc3ccccc3[C@@H]2c2ccc(F)cc2)OC1 (single isomer, unassigned) [Compound 5016]	0.199 µM
CCNC[C@@]1(O)CO[C@@H](C(=O)N2CCc3ccccc3[C@@H]2c2ccc(F)cc2)C1 [Compound 5037, ((2R,4R)-4-((ethylamino)methyl)-4-hydroxytetrahydrofuran-2-yl)((S)-1-(4-fluorophenyl)-3,4-dihydroisoquinolin-2(1H)-yl)methanone]	0.339 µM
N[C@@]12CC[C@@](C(=O)N3CCc4ccccc4C3c3ccc(F)cc3)(C1)OC2 (stereo in doubt) [Compound 5020, (4-amino-2-oxabicyclo[2.2.1]heptan-1-yl)((S)-1-(4-fluorophenyl)-3,4-dihydroisoquinolin-2(1H)-yl)methanone]	1.06 µM
O=C([C@@H]1CC[C@H](NCCO)CO1)N1CCc2ccccc2[C@@H]1c1ccc(F)cc1 [Compound 5033, ((S)-1-(4-fluorophenyl)-3,4-dihydroisoquinolin-2(1H)-yl)((2S,5S)-5-((2-hydroxyethyl)amino)tetrahydro-2H-pyran-2-yl)methanone]	0.163 µM
N[C@H]1CO[C@@H](C(=O)N2CCc3ccccc3[C@@H]2c2ccc(F)cc2)C[C@@H]1F [Compound 5210, ((2R,4S,5S)-5-amino-4-fluorotetrahydro-2H-pyran-2-yl)((S)-1-(4-fluorophenyl)-3,4-dihydroisoquinolin-2(1H)-yl)methanone]	0.596 µM
CCC(=O)N[C@H]1CO[C@@H](C(=O)N2CCc3ccccc3[C@@H]2c2ccc(F)cc2)C[C@@H]1N [Compound 5513, N-((3R,4S,6R)-4-amino-6-((S)-1-(4-fluorophenyl)-1,2,3,4-tetrahydroisoquinoline-2-carbonyl)tetrahydro-2H-pyran-3-yl)propionamide]	0.03 µM
C[C@]1(C(=O)N2CCc3ccccc3[C@@H]2c2ccc(F)cc2)CCNCCO1 [Compound 5239]	0.316 µM
N[C@H]1C[C@H](C(=O)N2CCc3ccccc3[C@@H]2c2ccc(F)cc2)OC[C@@H]1OC1CCC1 [Compound 5525, ((2R,4S,5R)-4-amino-5-cyclobutoxytetrahydro-2H-pyran-2-yl)((S)-1-(4-fluorophenyl)-3,4-dihydroisoquinolin-2(1H)-yl)methanone]	0.0003 µM
C[S@](=N)(=O)[C@H]1CO[C@@H](C(=O)N2CCc3ccccc3[C@@H]2c2ccc(F)cc2)C[C@@H]1N (single isomer, unassigned) [Compound 5548]	0.071 µM
N[C@H]1CO[C@@H](C(=O)N2CCc3ccccc3[C@@H]2c2ccc(F)cc2)C[C@H]1F [Compound 5075, ((2R,4R,5S)-5-amino-4-fluorotetrahydro-2H-pyran-2-yl)((S)-1-(4-fluorophenyl)-3,4-dihydroisoquinolin-2(1H)-yl)methanone]	0.529 µM
N[C@H]1C[C@H](C(=O)N2CCc3ccccc3[C@@H]2c2ccc(F)cc2)OC[C@H]1O [Compound 5051, ((2R,4S,5S)-4-amino-5-hydroxytetrahydro-2H-pyran-2-yl)((S)-1-(4-fluorophenyl)-3,4-dihydroisoquinolin-2(1H)-yl)methanone]	0.006 µM
CC(=O)N1CCN[C@H]2C[C@H](C(=O)N3CCc4ccccc4[C@@H]3c3ccc(F)cc3)OC[C@@H]21 (single isomer, unassigned) [Compound 5543]	0.003 µM
NC[C@@H]1CC[C@H](C(=O)N2CCc3ccccc3[C@@H]2c2ccc(F)cc2)O1 [Compound 5000, ((2R,5S)-5-(aminomethyl)tetrahydrofuran-2-yl)((S)-1-(4-fluorophenyl)-3,4-dihydroisoquinolin-2(1H)-yl)methanone]	0.41 µM
CCC(=O)N1CCN[C@H]2C[C@H](C(=O)N3CCc4ccccc4[C@@H]3c3ccc(F)cc3)OC[C@@H]21 (single isomer, unassigned) [Compound 5544]	0.019 µM
NC[C@@]1(O)COC(C(=O)N2CCc3ccccc3[C@@H]2c2ccc(F)cc2)C1 (single isomer, unassigned) [Compound 5004]	0.164 µM
N[C@@H]1CCO[C@@H](C(=O)N2CCc3ccccc3[C@@H]2c2ccc(F)cc2F)C1 [Compound 5256]	0.1 µM
Cn1cnc2c1CO[C@@H](C(=O)N1CCc3ccccc3[C@@H]1c1ccc(F)cc1)C2 [Compound 5529, ((S)-1-(4-fluorophenyl)-3,4-dihydroisoquinolin-2(1H)-yl)((R)-3-methyl-3,4,6,7-tetrahydropyrano[3,4-d]imidazol-6-yl)methanone]	1.56 µM
